In patent US8362047B1, “Anti-cancer agents based on 4-(hetero)Ary1-1,2,5-oxadiazol-3-yl Amino derivatives and a method of making” (U.S. Department of Energy, priority 2010, dated 2013) one finds IC50 data, which are given here for twelve molecules.

For one assay, the system named is DU-145 cells. Nature of the assay: Cell proliferation assay (Alamar-Blue) in DU-145 cells. Type of assay: cell-based. The settings on record: 72 h; DU-145 human prostate carcinoma cells, 3 days incubation, Alamar-Blue fluorescence. On the procedure:
Protocol for Cell Proliferation Assay:
This homogeneous assay involves simply adding a single reagent, the Alamar-Blue to the cell culture and measuring the fluorescence intensity (excitation wavelength=530 nm, emission wavelength=590 nm) after an incubation step. The Alamar-Blue reagent utilizes the redox dye resazurin, which is not fluorescent, but upon reduction by metabolically active cells is converted into a highly fluorescent product (resorufin). A decrease in fluorescence in the presence of a test compound indicates reduced proliferation. This change in signal is proportional to the number of viable cells and used as a measure of relative cytotoxicity. Therefore, the fluorescence intensity observed in this assay is a true measure of the viable proliferative cells.
• 2 mM stock of Paclitaxel in DMSO. • DMSO—(dimethylsulfoxide) (Panreac, Cat. number 141954.1611) • Resazurin sodium salt (Sigma, R-7071). 50 mM stock in DMSO. Equipment • Biomek FX Laboratory Automated Workstation (Beckman Coulter Inc., Fullerton, Calif.) • CO2 incubator (VWR Science, USA) • Bright line Hemacytometer (Z359629, Sigma, Ill., USA) Materials • 384-deep well plates (Greiner, No 781270) • 384-well optical bottom tissue culture plates (Greiner, No. 82051-282) Propagation CONDITIONS: 37° C., air 95%; carbon dioxide (CO2) 5%, humidified atmosphere. SUBCULTURING: • Cells were grown in 175 cm^2 flasks to 90-100% of confluency. • Culture media (RPMI-1640 (Paneco, C310)+10% FBS (fetal bovine serum)) was aspirated and cell layer was briefly rinsed with 0.53 mM EDTA solution to remove all traces of serum. • 2 ml of 0.2% trypsin/0.53 mM EDTA (ethylenediaminetetraacetic acid) solution was added to cells. • Flasks were returned to incubator for 5 rain to allow cells detachment • Add 6.0 ml of complete growth medium. • Single cell suspension was created by gently pipetting. • Cells are counted using a Hematocytometer and suspension with desirable cell concentration is prepared.
To test proliferation inhibition DU-145 cells were plated in 384-well plate at the density 4000 cells/well. Next day 4 mM solutions of compounds in DMSO were diluted 100 times in medium and added to cells to final concentration 20 uM (40 ul of cells+40 ul of compounds). Taxol at final concentration 1 uM was used as positive control. Cells were incubated with compounds for 3 days. After that Alamar-Blue was added to cells to a final concentration of 50 uM. After incubation for 4-6 hours at 37° C., fluorescence in plate was read using fluorescence plate reader Wallac 1420 (530 nm excitation filter, 590 nm emission filter). Proliferation inhibition was calculated using formula: % INH=100*((Fnegative−compound signal)/(Fnegative−Fpositive)), • Fnegative—DMSO was added to cells (viable cells) • Fpositive—taxol (1 uM) was added to cells (number of cells at the first day of incubation)
As to `CCCOc1ccccc1C(=O)Nc1nonc1-c1ccc(OC)cc1` [Example 6, 2-Propoxy-N^1-[4-(4-methoxyphenyl)-1,2,5-oxadiazol-3-yl]benzamide], the IC50 (usually the midpoint of a concentration-inhibition curve) came out at 850 nM.

Take `C=CCn1c(-c2nonc2NC(=O)c2ccccc2Cl)nc2ccccc21` [Example 3, 2-Chloro-N^1-[4-(1-allyl-1H-1,3-benzimidazol-2-yl)-1,2,5-oxadiazol-3-yl]benzamide]: the midpoint of inhibition, the IC50, lay at 890 nM.

`CCOc1ccc(-c2nonc2NC(=O)c2oc3ccc(Cl)cc3c2C)cc1` [Example 12, 5-chloro-N^2-[4-(4-ethoxyphenyl)-1,2,5-oxadiazol-3-yl]-3-methyl-1-benzofuran-2-carboxamide] had an IC50 of 950 nM.

Regarding `CCCCOc1ccccc1C(=O)Nc1nonc1-c1ccc(OCC)cc1` [Example 9, 2-Butoxy-N^1-[4-(4-ethoxyphenyl)-1,2,5-oxadiazol-3-yl]benzamide], the IC50 stood at 850 nM.

`CCOc1ccccc1C(=O)Nc1nonc1-c1ccc(OC)cc1` [Example 5, 2-Ethoxy-N^1-[4-(4-methoxyphenyl)-1,2,5-oxadiazol-3-yl]benzamide]: the IC50 worked out at 980 nM.

In the case of `CCOc1ccc(-c2nonc2NC(=O)c2ccccc2OCC)cc1C` [Example 10, 2-Ethoxy-N^1-[4-(4-ethoxy-3-methylphenyl)-1,2,5-oxadiazol-3-yl]benzamide], the midpoint of inhibition, the IC50, lay at 860 nM.

`CCCCn1c(-c2nonc2NC(=O)c2ccccc2Cl)nc2ccccc21` [Example 1, 2-Chloro-N^1-[4-(1-butyl-1H-1,3-benzimidazol-2-yl)-1,2,5-oxadiazol-3-yl]benzamide] returned an IC50 of 290 nM.

Molecule `CCCOc1ccccc1C(=O)Nc1nonc1-c1ccc(OCC)c(C)c1` [Example 11, 2-Propoxy-N^1-[4-(4-ethoxy-3-methylphenyl)-1,2,5-oxadiazol-3-yl]benzamide] came in with an IC50 of 930 nM.

As to `CCCOc1ccccc1C(=O)Nc1nonc1-c1ccc(OCC)cc1` [Example 8, 2-Propoxy-N^1-[4-(4-ethoxyphenyl)-1,2,5-oxadiazol-3-yl]benzamide], the IC50 worked out at 340 nM.

`CC(C)Cn1c(-c2nonc2NC(=O)c2ccccc2Cl)nc2ccccc21` [Example 2, 2-Chloro-N^1-[4-(1-isobutyl-1H-1,3-benzimidazol-2-yl)-1,2,5-oxadiazol-3-yl]benzamide]: the IC50 is 280 nM.

For `CCOc1ccc(-c2nonc2NC(=O)c2ccccc2OCC)cc1` [Example 7, 2-Ethoxy-N^1-[4-(4-ethoxyphenyl)-1,2,5-oxadiazol-3-yl]benzamide], the half-maximal inhibitory concentration (IC50) was 120 nM.

The same assay, now with this note: DU-145 human prostate carcinoma cells, 3 days incubation, Alamar-Blue fluorescence.
As to `CCOC(=O)Cn1c(-c2nonc2NC(=O)c2ccccc2F)nc2ccccc21` [Example 4, Ethyl 2-(2-4-[(2-fluorobenzoyl)amino]-1,2,5-oxadiazol-3-yl-1H-1,3-benzimidazol-1-yl)acetate], half-maximal inhibition (IC50) required 320 nM.
